According to PubChem BioAssay (NCI):
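Tested at 5 concentrations; 48 h exposure; 96-well plates; endpoints linearly interpolated, else capped at highest concentration. The concentration for 50% growth inhibition is given as GI50. TGI: total growth inhibition.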

Key:
Assay in all cases: DTP human tumour cell line panel, 48 h
[1] = system: M14 melanoma
[2] = system: MOLT-4 leukemia
[3] = system: NCI-H460 lung
[4] = system: OVCAR-8 ovarian
[5] = system: SN12C renal
[6] = system: SNB-19 CNS
[7] = system: UACC-257 melanoma
[8] = system: OVCAR-5 ovarian
[9] = system: HS 578T breast
[10] = system: MDA-MB-435

`O=C1CCCCCCCCCCC(=O)C2CCOCCOCCOCCC1Cc1cccc(n1)C2` was tested, and the TGI [1] was > 100 µM, the TGI [2] was > 100 µM and the TGI [3] was > 100 µM. The TGI [4] was > 100 µM, the TGI [5] was > 100 µM and the TGI [6] was > 100 µM. The TGI [7] was > 100 µM.
For `Cc1cc(O)c(C(=O)CC2(O)C(=O)Nc3c(Cl)cc(Cl)cc32)c(=O)o1` (configuration not stated), the TGI [1] was > 100 µM, the TGI [2] was > 100 µM and the TGI [3] was > 100 µM. The TGI [8] was > 100 µM, the TGI [4] was > 100 µM and the TGI [5] was > 100 µM. The TGI [6] was > 100 µM and the TGI [7] was > 100 µM.
`COc1ccc2nc(-c3ccccc3)cc(Nc3ccc(C(C)=O)cc3)c2c1` showed a GI50 [9] of 8.2 µM, a TGI [9] of 27.1 µM and a GI50 [1] of 2.61 µM. The TGI [1] was 7.25 µM, the GI50 [2] was 1.98 µM and the TGI [2] was 4.93 µM. The GI50 [3] was 5.73 µM, the TGI [3] was 19.3 µM and the GI50 [8] was 6.3 µM. It also gave a TGI [8] of 19.1 µM, a GI50 [4] of 4.17 µM and a TGI [4] of 35.8 µM. It also gave a GI50 [5] of 1.87 µM, a TGI [5] of 4.66 µM and a GI50 [6] of 5.74 µM. The TGI [6] was 26.6 µM, the GI50 [7] was 12 µM and the TGI [7] was 32.6 µM.
In the case of `c1nc2cscc2c2cscc12`, the TGI [1] is reported as > 100 µM, the TGI [2] is reported as > 100 µM and the TGI [3] is reported as > 100 µM. The TGI [8] was > 100 µM, the TGI [4] was > 100 µM and the TGI [5] was > 100 µM. For the same molecule, the TGI [6] was > 100 µM and the TGI [7] was > 100 µM.
`c1cc2c(cc1C(N1CCNCC1)N1CCNCC1)OCO2` was tested, and the TGI [9] was > 100 µM, the TGI [1] was > 100 µM and the TGI [10] was > 100 µM. The TGI [3] was > 100 µM, the TGI [8] was > 100 µM and the TGI [4] was > 100 µM. The TGI [5] was > 100 µM, the TGI [6] was > 100 µM and the TGI [7] was > 100 µM.
With `Clc1ccc(-n2nnc(C3=NCCCN3)c2-c2ccccc2)cc1` the TGI [1] was > 100 µM, the TGI [2] was > 100 µM and the TGI [3] was > 100 µM. The TGI [8] was > 100 µM, the TGI [4] was > 100 µM and the TGI [5] was > 100 µM. For the same molecule, the TGI [6] was > 100 µM and the TGI [7] was > 100 µM.
`COC(=O)/C=C(C)/C=C/c1cc(C(C)=O)c(C)o1` was tested, and the TGI [1] was > 100 µM, the TGI [2] was > 100 µM and the TGI [3] was > 100 µM. For the same molecule, the TGI [8] was > 100 µM, the TGI [4] was > 100 µM and the TGI [6] was > 100 µM. The TGI [7] was > 100 µM.
For `N/N=C(\CC1OC(=O)c2ccccc21)c1ccco1` (configuration not stated), the TGI [1] was > 100 µM, the TGI [2] was > 100 µM and the TGI [3] was > 100 µM. For the same molecule, the TGI [8] was > 100 µM, the TGI [6] was > 100 µM and the TGI [7] was > 100 µM.
With `CC(=O)[CH-]C(=O)c1ccccc1.CC(=O)[CH-]C(=O)c1ccccc1.CC(=O)[CH-]C(=O)c1ccccc1.[Tl+3]` the GI50 [1] was 24.7 µM, the TGI [1] was > 93 µM and the GI50 [2] was 18.8 µM. For the same molecule, the TGI [2] was > 69.4 µM, the GI50 [3] was 22.6 µM and the TGI [3] was > 100 µM. The GI50 [8] was > 100 µM, the TGI [8] was > 100 µM and the GI50 [4] was 59.3 µM. The TGI [4] was > 100 µM, the GI50 [5] was 72.6 µM and the TGI [5] was > 100 µM. The GI50 [6] was 95.2 µM, the TGI [6] was > 100 µM and the GI50 [7] was 26.3 µM. It also gave a TGI [7] of 82.7 µM.
With `C=C1C(=O)O[C@@H]2C1C[C@@H](O)/C(C)=C/C/C=C(\C)CCC[C@H](C)[C@H]2OC(C)=O` (some centres not stated) the GI50 [9] was 29.1 µM, the TGI [9] was 76 µM and the GI50 [1] was 19.4 µM. The TGI [1] was 44.1 µM, the GI50 [10] was 24.4 µM and the TGI [10] was 58 µM. The GI50 [3] was > 100 µM, the TGI [3] was > 100 µM and the GI50 [8] was 56.3 µM. The TGI [8] was > 100 µM, the GI50 [4] was 35.5 µM and the TGI [4] was > 100 µM. It also gave a GI50 [5] of 27.2 µM, a TGI [5] of 66.3 µM and a GI50 [6] of 61 µM. The TGI [6] was > 100 µM, the GI50 [7] was 36.4 µM and the TGI [7] was > 100 µM.
For `Cn1nc(-c2ccccc2)c(N=[N+]=[N-])cc1=O`, the TGI [1] was > 100 µM, the TGI [2] was > 100 µM and the TGI [3] was > 100 µM. The TGI [8] was > 100 µM, the TGI [4] was > 100 µM and the TGI [5] was > 100 µM. For the same molecule, the TGI [6] was > 100 µM and the TGI [7] was > 100 µM.
For `S=c1[nH]c(=S)c2sc(=S)n(-c3ccccc3)c2[nH]1`, the TGI [1] was > 100 µM, the TGI [2] was > 100 µM and the TGI [3] was > 100 µM. For the same molecule, the TGI [8] was > 100 µM, the TGI [4] was > 100 µM and the TGI [5] was > 100 µM. The TGI [6] was > 100 µM and the TGI [7] was > 100 µM.
`O=[N+]([O-])c1ccc(Sc2c3ccccc3nc3ccccc23)cc1` was tested, and the TGI [1] was > 100 µM, the TGI [2] was > 100 µM and the TGI [3] was > 100 µM. For the same molecule, the TGI [8] was > 100 µM, the TGI [4] was > 100 µM and the TGI [5] was > 100 µM. The TGI [6] was > 100 µM and the TGI [7] was > 100 µM.
For `O=C(c1cc(F)c(Cl)cc1Cl)N1N=C(c2ccccc2)CC1(O)c1ccccc1` (configuration not stated), the GI50 [9] was 23.8 µM, the TGI [9] was 58.8 µM and the GI50 [10] was 22.1 µM. For the same molecule, the TGI [10] was 49.4 µM, the GI50 [2] was 19.8 µM and the TGI [2] was 43 µM. The GI50 [3] was 19.1 µM, the TGI [3] was 36.7 µM and the GI50 [8] was 23.3 µM. It also gave a TGI [8] of 70.9 µM, a GI50 [4] of 25.5 µM and a TGI [4] of 72.4 µM. The GI50 [5] was 18.7 µM, the TGI [5] was 40.5 µM and the GI50 [6] was 29.2 µM. The TGI [6] was 93.7 µM, the GI50 [7] was 24.7 µM and the TGI [7] was 51.6 µM.
With `CC(=O)OCSc1ncnc2c1ncn2CN1CCOCC1` the TGI [1] was > 100 µM, the TGI [2] was > 100 µM and the TGI [3] was > 100 µM. The TGI [8] was > 100 µM, the TGI [4] was > 100 µM and the TGI [5] was > 100 µM. For the same molecule, the TGI [6] was > 100 µM and the TGI [7] was > 100 µM.
With `CCOC(=O)Cc1csc(/N=C2\NC(=O)/C(=C3\C(=O)N(C)c4ccccc43)S2)n1` the GI50 [9] was 66.7 µM, the TGI [9] was > 100 µM and the GI50 [10] was 36.6 µM. The TGI [10] was > 100 µM, the GI50 [2] was 40.3 µM and the TGI [2] was > 100 µM. The GI50 [3] was 20.7 µM, the TGI [3] was 55.9 µM and the GI50 [8] was > 100 µM. For the same molecule, the TGI [8] was > 100 µM, the GI50 [4] was 65.3 µM and the TGI [4] was > 100 µM. For the same molecule, the GI50 [5] was 31 µM, the TGI [5] was > 100 µM and the GI50 [6] was 52.5 µM. The TGI [6] was > 100 µM, the GI50 [7] was 79.1 µM and the TGI [7] was > 100 µM.
For `CC(C)=CC(=O)Oc1ccc([N+](=O)[O-])cc1`, the TGI [1] was > 100 µM, the TGI [2] was > 100 µM and the TGI [3] was > 100 µM. The TGI [8] was > 100 µM, the TGI [4] was > 100 µM and the TGI [5] was > 100 µM. For the same molecule, the TGI [6] was > 100 µM and the TGI [7] was > 100 µM.
With `CC(C)(C)C(=O)Nc1ccccc1I(=O)=O` the GI50 [9] was > 100 µM, the TGI [9] was > 100 µM and the GI50 [10] was > 100 µM. The TGI [10] was > 100 µM, the GI50 [2] was > 100 µM and the TGI [2] was > 100 µM. The GI50 [3] was > 100 µM, the TGI [3] was > 100 µM and the GI50 [8] was > 100 µM. For the same molecule, the TGI [8] was > 100 µM, the GI50 [4] was > 100 µM and the TGI [4] was > 100 µM. For the same molecule, the GI50 [5] was > 100 µM, the TGI [5] was > 100 µM and the GI50 [6] was > 100 µM. The TGI [6] was > 100 µM, the GI50 [7] was > 100 µM and the TGI [7] was > 100 µM.
For `N#CCc1ccc(C(C#N)/C(CCCC(=O)Nc2cccc([N+](=O)[O-])c2)=N\NC(=O)NN)cc1` (configuration not stated), the TGI [1] was > 100 µM, the TGI [2] was > 100 µM and the TGI [3] was > 100 µM. The TGI [8] was > 100 µM, the TGI [4] was > 100 µM and the TGI [5] was > 100 µM. For the same molecule, the TGI [6] was > 100 µM and the TGI [7] was > 100 µM.
